From ChEMBL document CHEMBL1201862, “PubChem BioAssay data set” (2004)
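Compound exposure: 48 hours, 5 concentrations, 96-well plates. Here, GI50 denotes the concentration required for 50% inhibition of growth.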 The source made the active and inactive calls. Rule as the data show it: active = GI50 up to about 1.1 µM and inactive = higher.

Columns and labels:
Test in all cases: NCI tumour cell line growth inhibition, 48 h
[1] = system: KM-20L2
[2] = system: DMS-273
[3] = system: DMS-114
[4] = system: M19-MEL
[5] = system: SNB-78
[6] = system: XF498
[7] = system: HOP-18
[8] = system: RXF 631
[9] = system: LXFL 529

Compound	GI50 [1]	GI50 [2]	GI50 [3]	GI50 [4]	GI50 [5]	GI50 [6]	GI50 [7]	GI50 [8]	GI50 [9]
NS(=O)(=O)OCCCCCCCOS(N)(=O)=O	488 µM (inactive)	68.7 µM (inactive)	130 µM (inactive)	383 µM (inactive)	526 µM (inactive)	54.8 µM (inactive)	689 µM (inactive)		
N#CCCN(CCC#N)c1ccc(/C=C(/NC(=O)c2cc([N+](=O)[O-])ccc2Cl)C(=O)N=[N+]=[N-])cc1	> 100 µM (inactive)	> 100 µM (inactive)	> 100 µM (inactive)	> 100 µM (inactive)	> 100 µM (inactive)		> 100 µM (inactive)	> 100 µM (inactive)	> 100 µM (inactive)
COc1ccc2c(c1)C1C(CO2)C(c2ccccc2)=NN1c1ccccc1 (stereo not given)	> 100 µM (inactive)	> 100 µM (inactive)	> 100 µM (inactive)	> 100 µM (inactive)	> 100 µM (inactive)	> 100 µM (inactive)	> 100 µM (inactive)	> 100 µM (inactive)	> 100 µM (inactive)
O=S(=O)(c1ccccc1)C1CN2OC1(S(=O)(=O)c1ccccc1)CC21CCCCC1 (stereo not given)	> 100 µM (inactive)	82.6 µM (inactive)	> 100 µM (inactive)	> 100 µM (inactive)		32.3 µM (inactive)		> 100 µM (inactive)	> 100 µM (inactive)
COc1ccc(/C=C/C(=O)c2sc(-n3nc(-c4ccccc4)cc3-c3ccccc3)nc2C)cc1OC	20.9 µM (inactive)	36.6 µM (inactive)	28.1 µM (inactive)	42.4 µM (inactive)		49.3 µM (inactive)	> 100 µM (inactive)	24.5 µM (inactive)	30.3 µM (inactive)
c1ccc(CN(Cn2cccn2)Cn2cccn2)nc1	> 100 µM (inactive)	61.7 µM (inactive)	78.7 µM (inactive)	> 100 µM (inactive)	> 100 µM (inactive)	> 100 µM (inactive)		> 100 µM (inactive)	> 100 µM (inactive)
Nc1ccccc1C(=O)C(Br)C(Br)c1ccc2c(c1)OCO2 (stereo not given)	17.2 µM (inactive)	15.1 µM (inactive)	18.2 µM (inactive)	17.8 µM (inactive)	24.3 µM (inactive)	16.7 µM (inactive)	16.7 µM (inactive)		16.7 µM (inactive)
COc1cc2c(cc1OC)C(CC(=O)NN=C(C)C)NCC2 (stereo not given)	> 100 µM (inactive)	> 100 µM (inactive)	> 100 µM (inactive)	> 100 µM (inactive)	> 100 µM (inactive)	96.6 µM (inactive)	> 100 µM (inactive)		> 100 µM (inactive)
O=C1C2C(C(=O)N1c1ccccc1)C1(Br)c3ccccc3C2(Br)C2C(=O)N(c3ccccc3)C(=O)C21 (stereo not given)	24.5 µM (inactive)	11.7 µM (inactive)	> 31.6 µM (inactive)	> 31.6 µM (inactive)	12.5 µM (inactive)	29.2 µM (inactive)	18.1 µM (inactive)	> 100 µM (inactive)	7.62 µM (inactive)
N#CC(C(=O)/C(=N/NC(=O)c1ccccc1O)C(C#N)c1ccc(Cl)cc1)c1ccc(Cl)cc1 (stereo not given)	13.7 µM (inactive)		23.8 µM (inactive)	14.1 µM (inactive)	19.5 µM (inactive)	13.5 µM (inactive)	11.5 µM (inactive)		12.6 µM (inactive)
O=C1c2c(O)cccc2C(C(=O)CCCC(=O)C2c3cccc(O)c3C(=O)c3c(O)cccc32)c2cccc(O)c21	1.19 µM (inactive)	0.437 µM (active)	0.116 µM (active)	0.151 µM (active)	0.213 µM (active)	0.0752 µM (active)	0.378 µM (active)	0.578 µM (active)	0.139 µM (active)
Cc1[nH]c(=O)nc(N/N=C/c2ccc(O)cc2)c1C(=O)Nc1ccc(Cl)cc1	> 100 µM (inactive)	> 100 µM (inactive)	> 100 µM (inactive)	> 100 µM (inactive)	> 100 µM (inactive)		> 100 µM (inactive)	> 100 µM (inactive)	> 100 µM (inactive)
N#Cc1ccc2cc3c(cc2c1)OCO3	> 100 µM (inactive)	95.5 µM (inactive)	> 100 µM (inactive)	> 100 µM (inactive)	> 100 µM (inactive)			> 100 µM (inactive)	> 100 µM (inactive)
CC(C)N(C(C)C)P(OCCC#N)OC1CC(n2cnc3c(=O)[nH]cnc32)OC1COC(=O)NCCCCCCNC(=O)OC(C)(C)c1ccc(-c2ccccc2)cc1 (stereo not given)	43.2 µM (inactive)	17.4 µM (inactive)	21.8 µM (inactive)	21.5 µM (inactive)	30.5 µM (inactive)		92 µM (inactive)		17.5 µM (inactive)
CCOc1ccc(/C=C(\Cl)c2ccc(OC)c(OC)c2)cc1	16.7 µM (inactive)	22 µM (inactive)	26.6 µM (inactive)	37.4 µM (inactive)	89.5 µM (inactive)	> 100 µM (inactive)	57.9 µM (inactive)		35.9 µM (inactive)
COc1ccccc1NC(=O)CC(=O)n1nc(C)c(/N=N/c2ccccc2F)c1C	> 100 µM (inactive)	> 100 µM (inactive)	> 100 µM (inactive)	> 100 µM (inactive)	17.3 µM (inactive)	40 µM (inactive)	> 100 µM (inactive)		> 100 µM (inactive)
COc1cc2cc3c4c(cc(OC)c(OC)c4c2cc1OC)CCN3C(=O)OCCBr	43.4 µM (inactive)	50.2 µM (inactive)		81.8 µM (inactive)	> 100 µM (inactive)	> 100 µM (inactive)			
CNC(N)NC	> 100 µM (inactive)	> 100 µM (inactive)	> 100 µM (inactive)	> 100 µM (inactive)	> 100 µM (inactive)	> 100 µM (inactive)	> 100 µM (inactive)		> 100 µM (inactive)
COc1ccc2c(c1)CCC(OS(=O)(=O)CC13CCC(CC1=O)C3(C)C)C2=O (stereo not given)	19.5 µM (inactive)	26.4 µM (inactive)	27.5 µM (inactive)	34.2 µM (inactive)		31.2 µM (inactive)	30.1 µM (inactive)		29.8 µM (inactive)
C/C1=N\[N-]C(=O)c2ccccc2C(=O)N/N=C(\C)c2cccc1n2.O=[N+]([O-])[O-].[Zn+2]	> 100 µM (inactive)		> 100 µM (inactive)		> 100 µM (inactive)		> 100 µM (inactive)		44.2 µM (inactive)
CSc1ccc2c(cc1=O)C(NC(=O)c1ccccc1)CCc1cc(O)c(O)c(O)c1-2 (stereo not given)	1.81 µM (inactive)	26.9 µM (inactive)	26.2 µM (inactive)	4.94 µM (inactive)	6.79 µM (inactive)		> 100 µM (inactive)		23.4 µM (inactive)
COc1cc2c(cc1OC)C(O)[C@H](Br)C(C)(C)O2 (stereo not given in full)	> 100 µM (inactive)	> 100 µM (inactive)	> 100 µM (inactive)	> 100 µM (inactive)		> 100 µM (inactive)	> 100 µM (inactive)		> 100 µM (inactive)
CCN(CC)CCNc1ccc2nnn3c4ccc(C)cc4c(=O)c1c23	6.32 µM (inactive)		9.12 µM (inactive)	14.6 µM (inactive)	10.9 µM (inactive)			5.28 µM (inactive)	12 µM (inactive)
NC(=O)c1cccc([N+](=O)[O-])c1	> 100 µM (inactive)	> 100 µM (inactive)	> 100 µM (inactive)	> 100 µM (inactive)	> 100 µM (inactive)	> 100 µM (inactive)			> 100 µM (inactive)
Cn1cnnc1Sc1c([N+](=O)[O-])ncn1C		> 100 µM (inactive)	> 100 µM (inactive)		45.9 µM (inactive)	> 100 µM (inactive)	13.5 µM (inactive)	> 100 µM (inactive)	20 µM (inactive)
